According to the kinase profiling compilation of Christmann-Franck et al. (2016):

Key:
Assay in all cases: KINOMEscan competition binding
Settings in all cases: compound 10.0 µM
MYO3A (human) = MYO3A (human) (UniProt Q8NEV4)
PRKG1 (human) = PRKG1 (human) (UniProt Q13976)
EPHB3 (human) = EPHB3 (human) (UniProt P54753)
[1] = system: KIT (human), P10721 [D816V]
MAP2K1 (human) = MAP2K1 (human) (UniProt Q02750)
NEK7 (human) = NEK7 (human) (UniProt Q8TDX7)
IGF1R (human) = IGF1R (human) (UniProt P08069)
CHEK1 (human) = CHEK1 (human) (UniProt O14757)
PIP5K1A (human) = PIP5K1A (human) (UniProt Q99755)
DDR2 (human) = DDR2 (human) (UniProt Q16832)
CDKL2 (human) = CDKL2 (human) (UniProt Q92772)
NUAK2 (human) = NUAK2 (human) (UniProt Q9H093)
GSK3A (human) = GSK3A (human) (UniProt P49840)
MAPK4 (human) = MAPK4 (human) (UniProt P31152)
FER (human) = FER (human) (UniProt P16591)
CDK11B (human) = CDK11B (human) (UniProt P21127)
ROS1 (human) = ROS1 (human) (UniProt P08922)
DAPK1 (human) = DAPK1 (human) (UniProt P53355)
SIK2 (human) = SIK2 (human) (UniProt Q9H0K1)
MAPK1 (human) = MAPK1 (human) (UniProt P28482)
CaMK1 (human) = CaMK1 (human) (UniProt Q14012)
GAK (human) = GAK (human) (UniProt O14976)
PIK3C2B (human) = PIK3C2B (human) (UniProt O00750)
EPHA2 (human) = EPHA2 (human) (UniProt P29317)
FGR (human) = FGR (human) (UniProt P09769)
CAMKK2 (human) = CAMKK2 (human) (UniProt Q96RR4)
PAK3 (human) = PAK3 (human) (UniProt O75914)
ALK (human) = ALK (human) (UniProt Q9UM73)
RPS6KA4 KD1 (human) = RPS6KA4 KD1 (human) (UniProt O75676)
ACVR2B (human) = ACVR2B (human) (UniProt Q13705)
PRKCH (human) = PRKCH (human) (UniProt P24723)
MAP3K5 (human) = MAP3K5 (human) (UniProt Q99683)
[2] = system: ABL1 (human), P00519 [M351T]
NEK6 (human) = NEK6 (human) (UniProt Q9HC98)
RPS6KA3 KD1 (human) = RPS6KA3 KD1 (human) (UniProt P51812)
NEK5 (human) = NEK5 (human) (UniProt Q6P3R8)
LIMK2 (human) = LIMK2 (human) (UniProt P53671)
RPS6KA5 KD1 (human) = RPS6KA5 KD1 (human) (UniProt O75582)
PRKX (human) = PRKX (human) (UniProt P51817)
DAPK3 (human) = DAPK3 (human) (UniProt O43293)

Sequence of PRKX (human) (P51817 whole entry, looked up): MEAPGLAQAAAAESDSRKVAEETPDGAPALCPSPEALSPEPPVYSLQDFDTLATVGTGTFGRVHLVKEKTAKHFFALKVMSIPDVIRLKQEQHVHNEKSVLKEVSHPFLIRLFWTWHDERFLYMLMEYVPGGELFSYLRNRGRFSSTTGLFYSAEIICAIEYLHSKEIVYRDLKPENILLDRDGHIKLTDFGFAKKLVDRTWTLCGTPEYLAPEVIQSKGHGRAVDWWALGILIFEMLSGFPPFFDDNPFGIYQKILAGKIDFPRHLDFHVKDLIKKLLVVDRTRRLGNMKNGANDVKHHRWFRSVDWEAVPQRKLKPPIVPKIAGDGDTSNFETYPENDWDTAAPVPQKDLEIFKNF
Sequence of NEK6 (human) (Q9HC98 whole entry, looked up): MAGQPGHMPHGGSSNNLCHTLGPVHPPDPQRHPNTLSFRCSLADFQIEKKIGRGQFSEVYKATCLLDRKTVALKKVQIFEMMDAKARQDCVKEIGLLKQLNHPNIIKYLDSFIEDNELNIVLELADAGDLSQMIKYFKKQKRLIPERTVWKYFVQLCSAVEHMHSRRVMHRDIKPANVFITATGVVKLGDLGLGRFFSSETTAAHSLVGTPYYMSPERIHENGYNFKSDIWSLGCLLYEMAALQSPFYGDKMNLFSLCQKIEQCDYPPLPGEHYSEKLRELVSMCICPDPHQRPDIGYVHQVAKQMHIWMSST
Sequence of GSK3A (human) (P49840 whole entry, looked up): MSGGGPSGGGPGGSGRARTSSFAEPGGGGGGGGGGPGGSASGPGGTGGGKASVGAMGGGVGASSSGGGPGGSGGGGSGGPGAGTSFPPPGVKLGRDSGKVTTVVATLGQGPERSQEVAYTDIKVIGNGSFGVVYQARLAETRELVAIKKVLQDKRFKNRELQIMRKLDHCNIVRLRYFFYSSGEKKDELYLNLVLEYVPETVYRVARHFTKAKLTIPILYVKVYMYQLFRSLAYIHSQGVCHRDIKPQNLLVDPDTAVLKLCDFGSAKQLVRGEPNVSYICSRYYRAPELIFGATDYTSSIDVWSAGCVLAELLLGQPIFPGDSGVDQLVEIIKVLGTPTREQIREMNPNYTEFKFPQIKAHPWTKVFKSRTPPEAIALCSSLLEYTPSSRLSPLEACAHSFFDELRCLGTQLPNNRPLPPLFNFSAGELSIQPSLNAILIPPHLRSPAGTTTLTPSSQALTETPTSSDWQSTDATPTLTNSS
Sequence of MAP2K1 (human) (Q02750 whole entry, looked up): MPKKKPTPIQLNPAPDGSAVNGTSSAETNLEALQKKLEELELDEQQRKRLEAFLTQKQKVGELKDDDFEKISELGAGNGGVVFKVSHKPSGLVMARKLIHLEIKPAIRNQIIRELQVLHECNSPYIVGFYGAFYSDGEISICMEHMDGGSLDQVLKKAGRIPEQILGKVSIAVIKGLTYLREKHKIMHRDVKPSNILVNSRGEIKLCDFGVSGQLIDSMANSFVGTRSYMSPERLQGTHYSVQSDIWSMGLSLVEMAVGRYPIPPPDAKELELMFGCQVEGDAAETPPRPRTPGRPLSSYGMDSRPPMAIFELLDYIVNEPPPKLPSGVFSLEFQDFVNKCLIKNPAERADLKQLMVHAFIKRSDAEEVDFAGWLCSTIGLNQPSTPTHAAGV
Sequence of PRKCH (human) (P24723 whole entry, looked up): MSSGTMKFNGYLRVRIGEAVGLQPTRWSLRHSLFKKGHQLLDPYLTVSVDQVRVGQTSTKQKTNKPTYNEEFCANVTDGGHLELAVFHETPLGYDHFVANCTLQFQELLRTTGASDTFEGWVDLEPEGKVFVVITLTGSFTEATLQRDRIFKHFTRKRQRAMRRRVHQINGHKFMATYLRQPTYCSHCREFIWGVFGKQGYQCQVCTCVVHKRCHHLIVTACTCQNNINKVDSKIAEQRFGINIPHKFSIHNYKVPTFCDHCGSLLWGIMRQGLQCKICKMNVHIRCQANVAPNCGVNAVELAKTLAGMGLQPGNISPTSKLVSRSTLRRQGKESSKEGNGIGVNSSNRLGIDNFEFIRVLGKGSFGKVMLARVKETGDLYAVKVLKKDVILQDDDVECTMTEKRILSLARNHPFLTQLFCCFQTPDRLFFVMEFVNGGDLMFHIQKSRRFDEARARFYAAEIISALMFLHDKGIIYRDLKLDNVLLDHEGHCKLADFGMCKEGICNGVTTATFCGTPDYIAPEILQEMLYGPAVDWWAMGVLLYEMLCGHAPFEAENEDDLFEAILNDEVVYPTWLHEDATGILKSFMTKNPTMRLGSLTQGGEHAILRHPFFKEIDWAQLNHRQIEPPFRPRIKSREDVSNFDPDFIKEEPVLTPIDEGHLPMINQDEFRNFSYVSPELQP
Sequence of DDR2 (human) (Q16832 whole entry, looked up): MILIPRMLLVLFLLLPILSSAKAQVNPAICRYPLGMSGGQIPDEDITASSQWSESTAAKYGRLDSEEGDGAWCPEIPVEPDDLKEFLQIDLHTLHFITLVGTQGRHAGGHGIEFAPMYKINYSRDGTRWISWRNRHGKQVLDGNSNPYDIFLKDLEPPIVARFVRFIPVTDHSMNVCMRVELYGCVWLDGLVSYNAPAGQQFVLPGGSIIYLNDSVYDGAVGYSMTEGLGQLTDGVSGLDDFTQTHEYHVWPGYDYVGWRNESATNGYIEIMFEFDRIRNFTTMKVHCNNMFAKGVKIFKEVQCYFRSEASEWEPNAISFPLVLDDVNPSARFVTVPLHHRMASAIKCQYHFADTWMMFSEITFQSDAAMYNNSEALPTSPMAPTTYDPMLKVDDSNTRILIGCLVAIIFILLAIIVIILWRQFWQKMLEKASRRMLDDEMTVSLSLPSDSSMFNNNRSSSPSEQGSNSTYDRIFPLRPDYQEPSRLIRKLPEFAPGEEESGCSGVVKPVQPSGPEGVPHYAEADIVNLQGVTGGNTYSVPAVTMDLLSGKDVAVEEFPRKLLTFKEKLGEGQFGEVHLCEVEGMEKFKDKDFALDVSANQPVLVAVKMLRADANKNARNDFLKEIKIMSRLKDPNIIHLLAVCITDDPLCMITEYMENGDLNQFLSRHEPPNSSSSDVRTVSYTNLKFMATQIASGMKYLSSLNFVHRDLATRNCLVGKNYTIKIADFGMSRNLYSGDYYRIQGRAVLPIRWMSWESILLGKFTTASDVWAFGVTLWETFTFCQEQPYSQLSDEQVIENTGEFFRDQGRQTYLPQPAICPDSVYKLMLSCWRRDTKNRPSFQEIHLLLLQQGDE
Sequence of FGR (human) (P09769 whole entry, looked up): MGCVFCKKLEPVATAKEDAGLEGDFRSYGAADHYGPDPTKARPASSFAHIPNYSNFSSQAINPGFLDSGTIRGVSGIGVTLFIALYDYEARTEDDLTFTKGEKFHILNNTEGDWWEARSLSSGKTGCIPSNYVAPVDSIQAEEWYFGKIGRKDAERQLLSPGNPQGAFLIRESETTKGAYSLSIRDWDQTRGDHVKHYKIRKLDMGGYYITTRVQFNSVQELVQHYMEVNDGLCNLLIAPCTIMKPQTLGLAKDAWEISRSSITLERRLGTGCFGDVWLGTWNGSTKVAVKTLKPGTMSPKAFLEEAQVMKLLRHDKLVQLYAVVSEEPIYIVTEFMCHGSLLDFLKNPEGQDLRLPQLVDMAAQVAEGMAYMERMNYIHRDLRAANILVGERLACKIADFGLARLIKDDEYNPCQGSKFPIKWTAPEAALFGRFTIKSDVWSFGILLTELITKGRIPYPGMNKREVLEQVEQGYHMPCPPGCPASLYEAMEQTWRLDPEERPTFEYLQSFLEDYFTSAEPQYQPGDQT
Sequence of EPHA2 (human) (P29317 whole entry, looked up): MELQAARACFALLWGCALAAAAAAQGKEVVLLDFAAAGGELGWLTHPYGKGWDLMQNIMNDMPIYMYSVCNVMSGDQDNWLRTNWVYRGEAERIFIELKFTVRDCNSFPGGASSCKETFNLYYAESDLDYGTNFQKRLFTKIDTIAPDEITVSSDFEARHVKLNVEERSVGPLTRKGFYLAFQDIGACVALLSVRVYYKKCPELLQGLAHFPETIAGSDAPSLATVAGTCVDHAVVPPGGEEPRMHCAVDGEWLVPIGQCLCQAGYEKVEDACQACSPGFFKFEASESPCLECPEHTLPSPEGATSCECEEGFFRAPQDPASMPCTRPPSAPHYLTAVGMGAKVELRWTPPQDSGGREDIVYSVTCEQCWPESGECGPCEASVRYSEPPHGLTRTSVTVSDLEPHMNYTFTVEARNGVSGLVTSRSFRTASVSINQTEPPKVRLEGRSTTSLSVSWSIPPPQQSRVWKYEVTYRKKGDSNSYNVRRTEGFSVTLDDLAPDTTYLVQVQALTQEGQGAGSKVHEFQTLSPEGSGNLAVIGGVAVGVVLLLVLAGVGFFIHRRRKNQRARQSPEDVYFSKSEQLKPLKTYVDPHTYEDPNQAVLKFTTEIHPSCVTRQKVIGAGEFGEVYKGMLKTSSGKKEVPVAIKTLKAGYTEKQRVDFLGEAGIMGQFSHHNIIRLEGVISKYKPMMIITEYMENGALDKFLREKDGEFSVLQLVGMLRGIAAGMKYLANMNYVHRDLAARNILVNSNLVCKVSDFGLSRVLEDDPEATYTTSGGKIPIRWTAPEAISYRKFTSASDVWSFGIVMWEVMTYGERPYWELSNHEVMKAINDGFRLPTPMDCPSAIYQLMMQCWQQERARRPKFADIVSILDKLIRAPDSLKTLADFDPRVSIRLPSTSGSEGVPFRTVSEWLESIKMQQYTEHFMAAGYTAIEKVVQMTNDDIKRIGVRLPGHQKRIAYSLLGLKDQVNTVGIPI
Sequence of MAPK1 (human) (P28482 whole entry, looked up): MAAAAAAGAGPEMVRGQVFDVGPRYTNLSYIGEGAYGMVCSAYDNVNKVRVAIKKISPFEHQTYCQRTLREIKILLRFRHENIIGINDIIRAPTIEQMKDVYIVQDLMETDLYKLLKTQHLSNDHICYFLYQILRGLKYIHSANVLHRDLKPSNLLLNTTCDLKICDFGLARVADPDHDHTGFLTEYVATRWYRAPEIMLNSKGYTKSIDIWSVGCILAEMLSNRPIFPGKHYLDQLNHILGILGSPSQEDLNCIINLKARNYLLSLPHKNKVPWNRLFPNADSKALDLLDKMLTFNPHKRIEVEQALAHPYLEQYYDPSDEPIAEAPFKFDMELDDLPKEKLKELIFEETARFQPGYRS

kinase still bound, per cent of control (MYO3A (human)) [%] | kinase still bound, per cent of control (PRKG1 (human)) [%] | kinase still bound, per cent of control (EPHB3 (human)) [%] | kinase still bound, per cent of control [1] [%] | kinase still bound, per cent of control (MAP2K1 (human)) [%] | kinase still bound, per cent of control (NEK7 (human)) [%] | kinase still bound, per cent of control (IGF1R (human)) [%] | kinase still bound, per cent of control (CHEK1 (human)) [%] | kinase still bound, per cent of control (PIP5K1A (human)) [%] | kinase still bound, per cent of control (DDR2 (human)) [%] | kinase still bound, per cent of control (CDKL2 (human)) [%] | kinase still bound, per cent of control (NUAK2 (human)) [%] | kinase still bound, per cent of control (GSK3A (human)) [%] | kinase still bound, per cent of control (MAPK4 (human)) [%] | kinase still bound, per cent of control (FER (human)) [%] | kinase still bound, per cent of control (CDK11B (human)) [%] | kinase still bound, per cent of control (ROS1 (human)) [%] | kinase still bound, per cent of control (DAPK1 (human)) [%] | kinase still bound, per cent of control (SIK2 (human)) [%] | kinase still bound, per cent of control (MAPK1 (human)) [%] | SMILES | further results
100 | 100 | 100 | 100 | 100 | 100 | 100 | 100 | 6.4 | 100 | 100 | 100 | 100 | 100 | 100 | 100 | 100 | 100 | 100 | 100 | COc1cc(C(=O)NC2CCN(C)CC2)ccc1Nc1ncc2c(n1)N(C1CCCC1)CCC(=O)N2C(C)C | kinase still bound, per cent of control (CaMK1 (human)): 100%; kinase still bound, per cent of control (GAK (human)): 100%; kinase still bound, per cent of control (PIK3C2B (human)): 100%; kinase still bound, per cent of control (EPHA2 (human)): 100%; kinase still bound, per cent of control (FGR (human)): 100%; kinase still bound, per cent of control (CAMKK2 (human)): 100%; kinase still bound, per cent of control (PAK3 (human)): 100%; kinase still bound, per cent of control (ALK (human)): 100%; kinase still bound, per cent of control (RPS6KA4 KD1 (human)): 100%; kinase still bound, per cent of control (ACVR2B (human)): 100%; kinase still bound, per cent of control (PRKCH (human)): 100%; kinase still bound, per cent of control (MAP3K5 (human)): 100%; kinase still bound, per cent of control [2]: 100%; kinase still bound, per cent of control (NEK6 (human)): 100%; kinase still bound, per cent of control (RPS6KA3 KD1 (human)): 100%; kinase still bound, per cent of control (NEK5 (human)): 100%; kinase still bound, per cent of control (LIMK2 (human)): 100%; kinase still bound, per cent of control (RPS6KA5 KD1 (human)): 100%; kinase still bound, per cent of control (PRKX (human)): 100%; kinase still bound, per cent of control (DAPK3 (human)): 100%
100 | 100 | 100 | 100 | 100 | 100 | 100 | 100 | 100 | 100 | 14 | 100 | 20 | 100 | 100 | 100 | 100 | 100 | 100 | 100 | OCCCNc1cc(-c2ccnc(Nc3cccc(Cl)c3)n2)ccn1 | kinase still bound, per cent of control (CaMK1 (human)): 100%; kinase still bound, per cent of control (GAK (human)): 100%; kinase still bound, per cent of control (PIK3C2B (human)): 100%; kinase still bound, per cent of control (EPHA2 (human)): 100%; kinase still bound, per cent of control (FGR (human)): 100%; kinase still bound, per cent of control (CAMKK2 (human)): 100%; kinase still bound, per cent of control (PAK3 (human)): 100%; kinase still bound, per cent of control (ALK (human)): 100%; kinase still bound, per cent of control (RPS6KA4 KD1 (human)): 100%; kinase still bound, per cent of control (ACVR2B (human)): 100%; kinase still bound, per cent of control (PRKCH (human)): 100%; kinase still bound, per cent of control (MAP3K5 (human)): 100%; kinase still bound, per cent of control [2]: 100%; kinase still bound, per cent of control (NEK6 (human)): 100%; kinase still bound, per cent of control (RPS6KA3 KD1 (human)): 100%; kinase still bound, per cent of control (NEK5 (human)): 100%; kinase still bound, per cent of control (LIMK2 (human)): 100%; kinase still bound, per cent of control (RPS6KA5 KD1 (human)): 100%; kinase still bound, per cent of control (PRKX (human)): 100%; kinase still bound, per cent of control (DAPK3 (human)): 100%

SMILES | kinase still bound, per cent of control (MYO3A (human)) [%] | kinase still bound, per cent of control (PRKG1 (human)) [%] | kinase still bound, per cent of control (EPHB3 (human)) [%] | kinase still bound, per cent of control [1] [%] | kinase still bound, per cent of control (MAP2K1 (human)) [%] | kinase still bound, per cent of control (NEK7 (human)) [%] | kinase still bound, per cent of control (IGF1R (human)) [%] | kinase still bound, per cent of control (CHEK1 (human)) [%] | kinase still bound, per cent of control (PIP5K1A (human)) [%] | kinase still bound, per cent of control (DDR2 (human)) [%] | kinase still bound, per cent of control (CDKL2 (human)) [%] | kinase still bound, per cent of control (NUAK2 (human)) [%] | kinase still bound, per cent of control (GSK3A (human)) [%] | kinase still bound, per cent of control (MAPK4 (human)) [%] | kinase still bound, per cent of control (FER (human)) [%] | kinase still bound, per cent of control (CDK11B (human)) [%] | kinase still bound, per cent of control (ROS1 (human)) [%] | kinase still bound, per cent of control (DAPK1 (human)) [%] | kinase still bound, per cent of control (SIK2 (human)) [%] | kinase still bound, per cent of control (MAPK1 (human)) [%] | further results
Cc1ccc(NC(=O)c2cccc(C(C)(C)C#N)c2)cc1Nc1ccc2ncn(C)c(=O)c2c1 | 100 | 100 | 0 | 16 | 100 | 96 | 95 | 84 | 100 | 21 | 85 | 100 | 100 | 100 | 100 | 11 | 100 | 100 | 77 | 100 | kinase still bound, per cent of control (CaMK1 (human)): 87%; kinase still bound, per cent of control (GAK (human)): 99%; kinase still bound, per cent of control (PIK3C2B (human)): 100%; kinase still bound, per cent of control (EPHA2 (human)): 3.2%; kinase still bound, per cent of control (FGR (human)): 12%; kinase still bound, per cent of control (CAMKK2 (human)): 28%; kinase still bound, per cent of control (PAK3 (human)): 81%; kinase still bound, per cent of control (ALK (human)): 93%; kinase still bound, per cent of control (RPS6KA4 KD1 (human)): 100%; kinase still bound, per cent of control (ACVR2B (human)): 100%; kinase still bound, per cent of control (PRKCH (human)): 100%; kinase still bound, per cent of control (MAP3K5 (human)): 100%; kinase still bound, per cent of control [2]: 3.3%; kinase still bound, per cent of control (NEK6 (human)): 100%; kinase still bound, per cent of control (RPS6KA3 KD1 (human)): 90%; kinase still bound, per cent of control (NEK5 (human)): 33%; kinase still bound, per cent of control (LIMK2 (human)): 95%; kinase still bound, per cent of control (RPS6KA5 KD1 (human)): 100%; kinase still bound, per cent of control (PRKX (human)): 100%; kinase still bound, per cent of control (DAPK3 (human)): 85%
